Data on 22 compounds can be found in patent US4119710A, “Bronchospasmolytic 1-(p-amino-phenyl)-2-amino-ethanols-(1) and salts” (Boehringer Ingelheim GmbH, priority 1972, dated 1978).

One series concerns the target T1, β2 -receptors (Cavia porcellus, UniProt Q8K4Z4).
T1 construct: tested on anesthetized guinea pigs; from tissue; host or cells: living anesthetized guinea pig, airways (Konzett-Rossler)
Nature of the series: β2-mimetic activity: antagonism to acetylcholine bronchospasm in anesthetized guinea pigs (Konzett-Rossler). The settings on record: for ED50: guinea pig, iv, bronchospasm by 20 γ/kg acetylcholine i.v., test compound i.v., graphic extrapolation (Table I); for Duration of activity (β2 -mimetic activity): i.v. (Table I). Format: in vivo. Here is the method: (§1) The compounds of this invention were tested for toxicity and with regard to their action on the β-receptors in warm-blooded animals, such as cats and guinea pigs, by the methods described below, and the following test results were obtained for representative species of the genus, where
The β2 -mimetic activity was tested on anesthetized guinea pigs as antagonism to bronchospasm provoked by intravenous administration of 20 γ of acetylcholine per kg body weight (according to the method of Konzett-Rossler) by intravenous administration of the test compound. From the average percentage decrease of the bronchospasm produced by various doses of the test compound, a median effective dose (ED50) was determined by graphic extrapolation (see Table I).

Series [1] can be described thus: acute toxicity in mice (LD50, Litchfield and Wilcoxon). As to conditions: mouse, in vivo, iv, groups of 10, i.v., deaths within 14 days (Table II), read-out: LD50. Here is the method: as §1
The acute toxicity of the compounds was determined on groups of 10 mice.

The target in another series is T2, β1 -receptors (Felis catus, UniProt Q9TST6).
T2 construct: tested on anesthetized cats; from tissue; host or cells: living anesthetized cat, heart (heart rate)
Nature of the series: β1-blocking activity: antagonism to tachycardia provoked by N-isopropyl-noradrenalin sulfate in anesthetized cats. Format: in vivo. The settings on record: cat, iv, tachycardia by 1.0 γ/kg i.v. N-isopropyl-noradrenalin sulfate, graphic extrapolation (Table II), read-out: Blocking action on the β1 -receptors ED50. As for the experimental part:
as §1
The β1 -blocking activity was tested on anesthetized cats as antagonism to tachycardia provoked by a standard dose of 1.0 γ/kg i.v. of N-isopropyl-noradrenalin sulfate. From the average percentage reduction in heart rate acceleration caused by N-isopropyl-noradrenalin sulfate, obtained by various doses of the test compound in question, a median effective dose (ED50) was determined by graphic extrapolation (see Tables II and III).

SMILES strings stand for the structures. Counter-ions that a name gives are not always drawn.

T2 sequence (Q9TST6 whole entry): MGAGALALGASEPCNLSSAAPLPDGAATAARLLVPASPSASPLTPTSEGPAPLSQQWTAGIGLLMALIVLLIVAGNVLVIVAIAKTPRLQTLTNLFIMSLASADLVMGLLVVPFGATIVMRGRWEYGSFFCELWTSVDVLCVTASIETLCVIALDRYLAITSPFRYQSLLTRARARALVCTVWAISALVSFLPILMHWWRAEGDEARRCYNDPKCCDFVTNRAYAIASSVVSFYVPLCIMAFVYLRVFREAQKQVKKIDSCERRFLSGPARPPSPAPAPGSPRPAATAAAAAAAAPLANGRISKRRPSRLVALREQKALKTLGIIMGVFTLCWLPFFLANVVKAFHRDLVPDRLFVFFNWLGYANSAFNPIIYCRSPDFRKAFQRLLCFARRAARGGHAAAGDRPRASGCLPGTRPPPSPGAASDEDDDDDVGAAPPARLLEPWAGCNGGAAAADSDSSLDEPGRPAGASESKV
T1 sequence (Q8K4Z4 whole entry): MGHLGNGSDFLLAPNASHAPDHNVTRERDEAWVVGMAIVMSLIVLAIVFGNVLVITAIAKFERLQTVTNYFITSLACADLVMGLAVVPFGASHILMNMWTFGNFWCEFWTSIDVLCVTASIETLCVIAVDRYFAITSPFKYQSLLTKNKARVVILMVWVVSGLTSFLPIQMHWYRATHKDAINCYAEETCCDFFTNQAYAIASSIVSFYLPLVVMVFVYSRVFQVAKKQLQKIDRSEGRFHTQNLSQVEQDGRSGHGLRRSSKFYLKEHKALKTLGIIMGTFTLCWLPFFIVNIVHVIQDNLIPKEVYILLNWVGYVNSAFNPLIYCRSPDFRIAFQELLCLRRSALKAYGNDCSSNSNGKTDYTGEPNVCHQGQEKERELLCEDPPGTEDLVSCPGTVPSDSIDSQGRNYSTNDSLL

One may read the ED50 as the midpoint of the dose-response relation. As a reminder, the LD50 is the dose at which mortality reaches 50%. `CC(C)(CO)NCC(O)c1cc(Cl)c(N)c(C#N)c1` (stereo not shown) [S, 1-(4'-amino-3'-chloro-5'-cyano-phenyl)-2-(hydroxy-tert.butylamino)-ethanolhydrochloride]: on β2 -receptors, the ED50 is 0.01 mg/kg and the “Duration of activity (β2 -mimetic activity)” value (“Duration of activity” for short) is more than 65 min. For the same compound, the LD50 at 336 h in series [1] was found to be 81.8 mg/kg. For the same compound, on β1 -receptors, the ED50 is 0.00076 mg/kg.
As to `CC(C)(C)NCC(O)c1cc(Cl)c(N)c(C(F)(F)F)c1` (stereo not shown) [G, 1-(4'-amino-3'-chloro-5'-trifluoromethyl-phenyl)-2-tert.butylamino-ethanolhydrochloride], at β2 -receptors, the ED50 is 0.0195 mg/kg and the “Duration of activity” value is more than 130 min. The 50% lethal dose (LD50) at 336 h in series [1] worked out at 36.5 mg/kg. The ED50 at β1 -receptors is 0.0115 mg/kg.
For `CC(C)(C)NCC(O)c1cc(F)c(N)c(Cl)c1.Cl` (stereo not shown) [D, 1-(4'-amino-3'-chloro-5'-fluoro-phenyl)-2-tert.butylamino-ethanol hydrochloride], in that order: 0.019 mg/kg, more than 120 min, 35.1 mg/kg and 0.008 mg/kg.
Take `CCC(C)(C)NCC(O)c1cc(Cl)c(N)c(C#N)c1.Cl` (stereo not shown) [T, 1-(4'-amino-3'-chloro-5'-cyano-phenyl)-2-tert.pentylamino-ethanol hydrochloride]: the ED50 at β2 -receptors is 0.0019 mg/kg; at β1 -receptors, 0.00045 mg/kg. The “Duration of activity” value on β2 -receptors is more than 40 min. In addition, the LD50 at 336 h in series [1] turned out to be 33.7 mg/kg.
For `CC(Cc1ccc2c(c1)OCO2)NCC(O)c1cc(Cl)c(N)c(C#N)c1` (stereo not shown) [V, 1-(4'-amino-3'-chloro-5'-cyano-phenyl)-2-[1"-(3,4-methylenedioxy-phenyl)-2"-propylamino]-ethanol hydrochloride], in that order: 0.0027 mg/kg, 0.0014 mg/kg, more than 65 min and 13.5 mg/kg.
`CC(C)NCC(O)c1cc(F)c(N)c(C#N)c1.Cl` (stereo not shown) [M, 1-(4'-amino-3'-fluoro-5'-cyano-phenyl)-2-isopropylamino-ethanol hydrochloride]: on β2 -receptors, the “Duration of activity” value is more than 40 min. The LD50 at 336 h in series [1] stood at 66.4 mg/kg. For the same compound, at β1 -receptors, the ED50 was 0.00027 mg/kg.
For the compound `Cl.N#Cc1cc(C(O)CNC2CCCC2)cc(Cl)c1N` (stereo not shown) [U, 1-(4'-amino-3'-chloro-5'-cyano-phenyl)-2-cyclopentylamino-ethanol hydrochloride], the ED50 at β2 -receptors is 0.0098 mg/kg; on β1 -receptors, 0.0007 mg/kg. For the same compound, the “Duration of activity” value at β2 -receptors is more than 50 min. Further, the LD50 at 336 h in series [1] worked out at 39.1 mg/kg.
Regarding `Cl.Nc1c(F)cc(C(O)CNC2CC2)cc1I` (stereo not shown) [L, 1-(4'-amino-3'-fluoro-5'-iodo-phenyl)-2-cyclopropylamino-ethanol hydrochloride], in series [1], the LD50 at 336 h was determined as 45.2 mg/kg. For the same compound, on β1 -receptors, the 50% effective dose (ED50) is 0.0013 mg/kg.
`Cl.Nc1c(F)cc(C(O)CNC2CC2)cc1Cl` (stereo not shown) [C, 1-(4'-amino-3'-chloro-5'-fluoro-phenyl)-2-cyclopropylamino-ethanol hydrochloride]: on β2 -receptors, the ED50 is 0.024 mg/kg and the “Duration of activity” value is more than 50 min. Moreover, the LD50 at 336 h in series [1] came to 57 mg/kg. Besides, the 50% effective dose (ED50) at β1 -receptors is 0.014 mg/kg.
For `Cl.Nc1c(F)cc(C(O)CNC2CCC2)cc1Br` (stereo not shown) [K, 1-(4'-amino-3'-bromo-5'-fluoro-phenyl)-2-cyclobutylamino-ethanol hydrochloride], in that order: 0.058 mg/kg, more than 50 min, 26.4 mg/kg and 0.0015 mg/kg.
For `CC(C)(C)NCC(O)c1cc(Cl)c(N)c(C#N)c1` (stereo not shown) [I, 1-(4'-amino-3'-chloro-5'-cyano-phenyl)-2-tert.butylamino-ethanol], in that order: 0.0002 mg/kg, more than 95 min, 60 mg/kg and 0.00074 mg/kg.
Consider `CC(C)(C)NCC(O)c1cc(Br)c(N)c(C#N)c1.Cl` (stereo not shown) [J, 1-(4'-amino-3'-bromo-5'-cyano-phenyl)-2-tert.butylamino-ethanol hydrochloride], for which, on β2 -receptors, the ED50 was 0.0048 mg/kg and the “Duration of activity” value is more than 40 min. Moreover, the LD50 at 336 h in series [1] worked out at 67 mg/kg.
Take `CC(C)(C)NCC(O)c1cc(F)c(N)c(Br)c1.Cl` (stereo not shown) [A, 1-(4'-amino-3'-bromo-5'-fluoro-phenyl)-2-tert.butylamino-ethanol hydrochloride]: at β2 -receptors, the 50% effective dose (ED50) is 0.0083 mg/kg and the “Duration of activity” value is more than 150 min. Besides, in series [1], the LD50 at 336 h came to 34.5 mg/kg. Further, the ED50 on β1 -receptors is 0.0185 mg/kg.
For `CC(C)(C)NCC(O)c1cc(C#N)c(N)c(C#N)c1.Cl` (stereo not shown) [X, 1-(4'-amino-3',5'-dicyano-phenyl)-2-tert.butylamino-ethanol hydrochloride], in that order: 0.0113 mg/kg, more than 65 min, 166 mg/kg and 0.00092 mg/kg.
Take `Br.CCC(C)(C)NCC(O)c1ccc(N)c(C(F)(F)F)c1` (stereo not shown) [F, 1-(4'-amino-3'-trifluoromethyl-phenyl)-2-tert.pentylamino-ethanol hydrobromide]: on β1 -receptors, the ED50 is 0.035 mg/kg.
For `CC(C)(C)NCC(O)c1cc(F)c(N)c(C#N)c1.Cl` (stereo not shown) [N, 1-(4'-amino-3'-fluoro-5'-cyano-phenyl)-2-tert.butylamino-ethanol hydrochloride], at β2 -receptors, the ED50 was 0.00032 mg/kg and the “Duration of activity” value is more than 40 min. The LD50 at 336 h in series [1] was found to be 58.4 mg/kg.
For `CC(C)(C)N1COC(c2cc(F)c(N)c(Br)c2)C1.Cl.Cl` (stereo not shown) [B, 5-(4'-amino-3'-bromo-5'-fluoro-phenyl)-3-tert.butyloxazolidine dihydrochloride], in that order: 0.0067 mg/kg, more than 110 min and 27.2 mg/kg.
For `Nc1c(Cl)cc(C(O)CNC2CCC2)cc1C(F)(F)F` (stereo not shown) [H, 1-(4'-amino-3'-chloro-5'-trifluoromethyl-phenyl)-2-cyclobutylamino-ethanolhydrochloride], in that order: 0.0068 mg/kg, more than 125 min and 36.3 mg/kg.
Consider `CC(C)(C)NCC(O)c1cc(Br)c(N)c([N+](=O)[O-])c1` (stereo not shown) [Y, 1-(4'-amino-3'-bromo-5'-nitro-phenyl)-2-tert.butylamino-ethanol], for which the median lethal dose (LD50) at 336 h in series [1] was 35.8 mg/kg. Also, the ED50 at β1 -receptors is 0.0028 mg/kg.
As for `Br.N#Cc1cc(C(O)CNC2CCC2)ccc1N` (stereo not shown) [O, 1-(4'-amino-3'-cyano-phenyl)-2-cyclobutylamino-ethanol hydrobromide], at β2 -receptors, the ED50 was 0.0069 mg/kg and the “Duration of activity” value turned out to be 40 min. Further, in series [1], the 50% lethal dose (LD50) at 336 h came out at 61.8 mg/kg.
For `Cl.N#Cc1cc(C(O)CNC2CCC2)cc(Br)c1N` (stereo not shown) [W, 1-(4'-amino-3'-bromo-5'-cyano-phenyl)-2-cyclobutylamino-ethanol hydrochloride], at β2 -receptors, the ED50 was 0.0205 mg/kg and the “Duration of activity” value is more than 50 min. Further, the LD50 at 336 h in series [1] was 38.5 mg/kg.
For `CCC(C)(C)NCC(O)c1ccc(N)c(C#N)c1` (stereo not shown) [P, 1-(4'-amino-3'-cyano-phenyl)-2-tert.pentylamino-ethanol], in that order: 0.0036 mg/kg, 65 min and 62 mg/kg.
